Measured values published in patent US7132458B2, “Oxidized carotenoid fractions and ketoaldehyde useful as cell-differentiation inducers, cytostatic agents, and anti-tumor agents” (Chemaphor Inc., priority 1994, dated 2006).

Experiments:
[1] = system: SW480 human colorectal tumor; assay: Human xenograft tumor growth, nude mice; format: in vivo, mouse; conditions: 40 mg/kg body weight three times per week, FIG. 14
Protocol: FIG. 14 is a graph illustrating the inhibition of growth by the ketoaldehyde of a tumor derived from human colorectal cancer cells. Balb/c nude mice were inoculated subcutaneously in the flank with 5.0×10^6 cells of the SW-480 human colorectal adenocarcinoma cell line. There were 7 control animals and 7 animals in the treatment group. The administration schedule was 40 mg/kg of ketoaldehyde in 20% ethanol in saline given by intraperitoneal injection 3 times per week (Monday, Wednesday and Friday).
The ketoaldehyde provides a significant degree of tumor growth control for a period of more than 67 days in a nude mouse xenograft model of human colon cancer (human colon cancer cell line, SW480; see FIG. 14).

Lewis lung carcinoma = Lewis lung carcinoma model, lung metastases; format: in vivo, mouse
Protocol: The well-known Lewis lung carcinoma model was used as follows: cells were injected subcutaneously into the flanks of C57 BL/6 mice, which were assigned into control and treated groups containing ten animals per group. On day 8, the tumor was excised. The ketoaldehyde (200 mg/kg body weight) in 20% aqueous ethanol or drug vehicle (aqueous ethanol) was administered intraperitoneally on days 9, 11, 13, 15 and 19. On day 22, the animals were sacrificed and their lungs were removed. The lungs were weighed and the number of metastases determined by counting the nodules established in each lung.

[2] = system: LNCaP-FGC-10 prostate tumors; assay: Human xenograft tumor growth, nude mice; format: in vivo, mouse
Description: The ketoaldehyde is also active against human LNCaP-FGC-10 prostate tumors grown in nude mice.

LS174T colorectal tumor = assay: Human xenograft tumor growth, SCID mice; format: in vivo, mouse; conditions: thrice-weekly dosing 40 mg/kg
HT29 colon cancer = assay: Inhibition of proliferation, fluorescence-based assay; format: cell-based; conditions: Homo sapiens, HT-29, 10–175 μM, 72 hours, read-out: Relative Inhibition of Proliferation
Protocol: (§1) The effect of the ketoaldehyde upon the inhibition of cell proliferation in cultured cancer cells was determined using a conventional, fluorescence-based anti-proliferative assay and a flow cytometry method. The extent of apoptosis was determined for some cell lines as well.
(§2) The effect of different concentrations of the ketoaldehyde upon the proliferation of the SW480 colorectal and MCF-7 breast cancer cell lines as a function of time is provided in FIGS. 12 and 13, respectively. The inhibition of proliferation in individual cell lines is summarized in Table 10, which provides a relative ranking of the ketoaldehyde's IC50 for each cell line.

HCT116 colon cancer = assay: as above; format: cell-based; conditions: Homo sapiens, HCT-116, 10–175 μM, 72 hours, read-out: Relative Inhibition of Proliferation
Protocol: as §1, §2

[3] = system: K562 chronic myelogenous leukemia; assay: as above; format: cell-based; conditions: Homo sapiens, 10–175 μM, 72 hours, read-out: Relative Inhibition of Proliferation
Protocol: as §1, §2

[4] = system: NB4 acute promyelocytic leukemia; assay: as above; format: cell-based; conditions: Homo sapiens, 10–175 μM, 72 hours, read-out: Relative Inhibition of Proliferation
Protocol: as §1, §2

IMR32 neuroblastoma = assay: as above; format: cell-based; conditions: Homo sapiens, IMR-32, 10–175 μM, 72 hours, read-out: Relative Inhibition of Proliferation
Protocol: as §1, §2

[5] = system: MCF-7 human breast cancer tumor; assay: Human xenograft tumor growth, nude mice; format: in vivo, mouse; conditions: 40 mg/kg body weight
Description: […] […] While the MCF-7 cell line appears to be less susceptible to the ketoaldehyde than the SW480 cell line, it should be noted that the MCF-7-derived tumors grow more aggressively than those derived from SW480, which necessitated using 20-fold fewer MCF-7 cells to obtain an initially slower rate of tumor growth.

[6] = system: DA-3 mammary adenocarcinoma; conditions: over 28 days; from U.S. Ser. No. 08/527,039; cited from earlier work
Pilot toxicity study = format: in vivo
Protocol: Significant inhibition of tumor growth has been obtained with doses of only 10–40 mg/kg body weight. Thus, the ketoaldehyde has a therapeutic index (400/(10–40)) of approximately 10 to 40.

[7] = system: HCC 1143 breast carcinoma; assay: Inhibition of proliferation and apoptosis, flow cytometry; format: cell-based; conditions: Homo sapiens, HCC1143, 20–100 μM, 24, 48, 72 and 96 hours, read-out: Relative Inhibition of Proliferation
Protocol: as §1, §2

[8] = system: SW480 colorectal adenocarcinoma; assay: as above; format: cell-based; conditions: Homo sapiens, 20–100 μM, 24, 48, 72 and 96 hours, read-out: Relative Inhibition of Proliferation
Protocol: as §1, §2

[9] = system: MCF-7 breast adenocarcinoma; assay: as above; format: cell-based; conditions: Homo sapiens, MCF7, 20–100 μM, 24, 48, 72 and 96 hours, read-out: Relative Inhibition of Proliferation
Protocol: as §1, §2

[10] = system: NCI-H23 non-small cell lung cancer; assay: as above; format: cell-based; conditions: Homo sapiens, 20–100 μM, 24, 48, 72 and 96 hours, read-out: Relative Inhibition of Proliferation
Protocol: as §1, §2

[11] = system: D 341 medulloblastoma (brain); assay: as above; format: cell-based; conditions: Homo sapiens, D341, 20–100 μM, 24, 48, 72 and 96 hours, read-out: Relative Inhibition of Proliferation
Protocol: as §1, §2

[12] = system: SK-Mel malignant melanoma epidermal; assay: as above; format: cell-based; conditions: Homo sapiens, 20–100 μM, 24, 48, 72 and 96 hours, read-out: Relative Inhibition of Proliferation
Protocol: as §1, §2

[13] = system: HL-60 acute promyelocytic leukemia; assay: as above; format: cell-based; conditions: Homo sapiens, 20–100 μM, 24, 48, 72 and 96 hours, read-out: Relative Inhibition of Proliferation
Protocol: as §1, §2

K562 = conditions: from U.S. Ser. No. 08/527,039; cited from earlier work
HCT116 = conditions: from U.S. Ser. No. 08/527,039; cited from earlier work
IMR32 = conditions: from U.S. Ser. No. 08/527,039; cited from earlier work
NB4 = conditions: from U.S. Ser. No. 08/527,039; cited from earlier work

SMILES: CC(=O)C=CC=C(C)C=O [the ketoaldehyde, 2-methyl-6-oxo-2,4-heptadienal]
- period of significant tumor growth control [1]: more than 67 days
- Mean Lung Weight ± SEM (Lewis lung carcinoma; 200 mg/kg i.p. days 9, 11, 13, 15, 19, day 22, control 0.287 ± 0.013 g, 2-tail t-test 0.004): 0.229 ± 0.012 g
- Mean No. Metastases ± SEM (Lewis lung carcinoma; 200 mg/kg i.p. days 9, 11, 13, 15, 19, day 22, control 28.0 ± 2.4, 2-tail t-test 0.01): 14.4 ± 4.1
- Difference in Mean Lung Weight, control minus treated (Lewis lung carcinoma; 200 mg/kg i.p., day 22): 0.058 g
- Difference in Mean No. Metastases, control minus treated (Lewis lung carcinoma; 200 mg/kg i.p., day 22): 13.6
- reduction in the number of lung metastases (Lewis lung carcinoma; treated animals versus control): ~50%
- activity against tumors [2]: active
- tumor response (LS174T colorectal tumor): responded well
- IC50 (HT29 colon cancer): ~100 µM
- IC50 (HCT116 colon cancer): ~50 µM
- IC50 [3]: > 100 µM
- IC50 [4]: ~100 µM
- IC50 (IMR32 neuroblastoma): ~50 µM
- tumor response ([5]; daily dosing): improved response
- tumor response ([5]; thrice-weekly dosing): responded
- tumor volume [6]: less than 50 % of the control
- LD100 (Pilot toxicity study; mice, pilot toxicity study): approximately 400 mg/kg body weight
- therapeutic index (400/(10–40)) (Pilot toxicity study; mouse, in vivo): 10–40
- toxicity at therapeutically functional doses (Pilot toxicity study; mouse, in vivo): No toxicity
- IC50 [7]: > 100 µM
- IC50 [8]: ~50 µM
- IC50 [9]: ~50 µM
- IC50 [10]: ~50 µM
- IC50 [11]: ~50 µM
- IC50 [12]: ~100 µM
- IC50 [13]: ~50 µM
- cytostatic effect (K562): cytostatic effect
- cytostatic effect (HCT116): cytostatic effect
- cytostatic effect (IMR32): cytostatic effect
- cytostatic effect (NB4): cytostatic effect
